This is an account of results in patent US6642365B1, “Anti-(retro)viral conjugates of saccharides and acetamidino or guanidino compounds” (Yeda Research and Development Co. Ltd., priority 2001, dated 2003).

The structures appear in SMILES notation.

The subject of test [1] is TAR RNA. Kind of test: Gel-shift binding to TAR RNA. Details: species or system HIV-1. The method, then: (§1) The model Tat peptide (R52: […]) was prepared by the Weizmann Institute Chemical Services and was purified by reverse phase HPLC (C-18) (Lapidot et al., 1995). […] The RNA was transcriptionally labeled with α-^32P UTP, purified on a 12% polyacrylamide/7M urea gel (19:1 acrylamide:bis-acrylamide) and was eluted from the gel by 0.5M ammonium acetate, 10 mM magnesium acetate, 1 mM EDTA and 0.1% SDS. The sample was subjected to phenol extraction and the RNA was precipitated from 70% ethanol. Purified RNA was dissolved in diethyl pyrocarbonate-treated water (DEPC water), its concentration was determined by UV absorption at 260 nm and the specific radioactivity was determined by scintillation counting on a LS 1701 “Bruker” counter.
To study the affinity of the test compounds to TAR, gel-shift and gel-shift inhibition experiments were performed. The binding reaction mixtures (20 μl) contained ^32P-labeled TAR (18-44) RNA oligonucleotide (3-6 nM) and Tat R52 peptide (35-75 nM) in a binding buffer (10 mM Tris-HCl pH 7.5, 70 mM NaCl, 0.2 mM EDTA and 5% glycerol). The reaction mixtures were incubated for 10 minutes on ice and resolved by electrophoresis on a 10% non-denaturing polyacrylamide gel (40:1 acrylamide:bis-acrylamide) at 200V, for 3 h at 4° C. Gels were dried and visualized by autoradiography. Quantitations were obtained by optical densitometry of films. Alternatively, results were visualized by exposing the wet gels to Fuji phosphoimager plates, which were read on a “Storm 820” (Molecular Dynamics) phosphoimager. […]
Binding of aminoglycoside-arginine conjugates (AAC) to TAR RNA was measured by adding varying concentrations of each conjugate to reaction mixtures (20 μl) which contained 12 nM ^32P-labeled TAR RNA. The reactions were analyzed as described above.

Test [2] concerns TAR RNA. Kind of test: RNase A footprinting of TAR RNA. It is filed as binding, HIV-1. The method, then:
In a typical experiment 10 μl of 5 mM cacodylate buffer pH 6.5, containing 25 mM KCl and 50-100 ng 5′ ^32P-labeled TAR RNA (approximately 0.5-1 μM) were incubated with 200 pM RNase A (Sigma) at room temperature for 10 minutes in the presence of Tat R52 and the conjugates of the invention at various concentrations. In the competition experiments, the mixture was supplemented with 0.5 μg yeast tRNA (Sigma). After the incubation, 10 μl of formamide/bromphenol blue loading buffer was added to the samples. The samples were heated to 80° C. for 2 min and were resolved by electrophoresis on 40 cm×0.8 mm 20% polyacrylamide denaturing gel (7M urea) for 3 hours at 55° C. The results were visualized by a phosphoimager as described above and quantitated using ImageQuant software.
TAR RNA and RNase A concentrations were established by co-titration. To produce a “single-hit” kinetics conditions, 1 μM TAR versus 200 pM RNase A were selected. Tat R52 and AAC concentrations were determined by titration. […] RNase A cleaved TAR RNA in an uneven manner (FIG. 4A., lane 2). The most susceptible regions for cleavage were the single-stranded loop, nucleotides U31-G34 as well as C24 and U25 of the bulge. Strong cleavage was also observed at G21-G41 and A20-U42 pairs (lower stem). Binding of R52 (2-4 μM) caused a weakening of the bands in the upper stem region, (G26-C39, A27-C38, as well as U40) (FIG. 4A., lanes 3, 4). At 4 μM R52, the cleavage at G34 (loop) was enhanced, as well as a certain enhancement of bands A20, G21, U23 and U25 was observed. Remarkably, the band corresponding to the R52-TAR complex still was observed on the gels even after electrophoresis under strongly denaturing conditions. In the presence of R4K (10-20 μM), the upper stem (G26-C29), the lower stem and the bulge (G21-U23, partially C24 and U25) were protected as well as C38, C39 and U40. Cleavage at C19 and A20 of the lower stem and C30, G33 and G34 of the loop was enhanced by 10 μM R4K, whereas with 20 μM R4K the protection of C30, G34 and A20-G21 was observed (FIG. 4A., lanes 5, 6). […] Cleavages at C19-A20 in the lower stem as well as at G30 and G34 in the loop were observed (FIG. 4A., lanes 7, 8). In the presence of GB4K (20 μM) no significant protection was observed.

Test [3] relates to equine infectious anemia virus (EIAV). Description: Antiviral activity in EIAV-infected ED fibroblasts. Format: cell-based. The following applies: 100-250 μM. On the procedure: Both equine dermal fibroblasts (ED) and Equine Infectious Anemia Virus (EIAV), Wyoming isolate (Malmquist et al., 1973) were gifts from Profs. A. Yaniv and A. Gazit, from the Sackler Medical School of the Tel-Aviv University, Israel. ED cells were plated on plastic 6-well tissue culture plates (Nunclone) at density of […] per well in 2 ml of DMEM/10% FCS (fetal calf serum). The medium was removed after 12-20 hours and the cells were inoculated for 2 hours with 0.5 ml DMEM/10% FCS containing 5×10^6 pfu (plaque forming units) of EIAV and 10 μg/ml of polybrene (hexadimetrine bromide, Sigma) (Carpenter and Chesebro, 1989). Following the incubation, another 2.5 ml of DMEM/10% FCS was added to each well. […] Every […], 1.2 ml samples of the medium were collected and replaced with same amount of medium, containing radioactive uridine and the tested. The samples were clarified from cell debris by spinning at 12000 rpm for 5 minutes on the Eppendorf centrifuge. Viral particles from the clarified supernatants were collected by ultracentrifugation at 75000 rpm, 4° C. on the Beckman TL 100 centrifuge using TLA 100.2 rotor (Cheevers et al., 1977). The supernatants were carefully discarded and the pellet was resuspended in 200 μl of 1% SDS/5% Tritone X-100, mixed with 1 ml Ultima Gold scintillation liquid (Packard) and counted on LS 1701 Bruker scintillation counter. Typical duration of the experiment was 15 days; EIAV growth curves in the presence of various concentrations of the conjugates in the medium were obtained. Development of the cytopathic effect (cpe) in the infected ED cells was monitored by light microscopy.
Equine infectious anemia virus (EIAV) of Wyoming strain is adapted to grow in equine dermal fibroblasts (ED), without damaging them with a titer of 1 μfu per cell (Malmquist virus). […] In the absence of inhibitors, EIAV proliferated in the ED cells reaching a plato 9-12 days after infection (FIG. 8). […] Development of cpe started 10-12 days after infection, reaching a maximum on days 15-17, followed by rapid cell death and exfoliation from the plastic bottom of the well.

The test system of test [4] is TAR RNA. Kind of test: L-arginine-Amberlite affinity column elution of TAR RNA. Format: binding, HIV-1. The following applies: concentration that elutes 50% of TAR RNA from L-arginine-Amberlite affinity column. The method, then:
as §1
The L-arginine-Amberlite resin was prepared as follows: Carboxyl groups of Amberlite IRC-50 resin were covalently modified with ethanolamine using 1-(3-dimethylaminopropyl) 3-ethylcarbodiimide, a water-soluble coupler. The hydroxy ethyleneamide resin obtained was washed and dried, and L-arginine (12-16 μmols per ml of resin) was coupled to the hydroxy groups of the resin via an isourea moiety using a standard cyanogen bromide protocol. The final concentration of arginine residues was 12-16 μmol per ml of resin. The swollen L-arginino-Amberlite resin (200 μl) was packed into a plastic mini-column and equilibrated with buffer containing 40 mM Tris HCl, pH 7.5, 250 mM NaCl, 0.5 mM EDTA and 5 mM MgCl2 (buffer A). Approximately 1 ng of ^32P-UTP labeled TAR RNA in buffer A was loaded on the column. The column was eluted 3 to 5 times with 400 μl portions of buffer A, until no radioactivity was detected in the eluent. […] Each of the test compounds was dissolved in buffer A and passed through the column in 300 μl portions. Radioactivity of the eluates was determined by scintillation counting on a LS 1701 “Bruker” counter. CE50 values, the concentrations of inhibitors eluting 50% of the radioactive material from the column, were determined.

A further test deals with Tat-TAR interaction. Description: Gel-shift inhibition of Tat R52 peptide binding to TAR RNA. Details: species or system HIV-1. The following applies: for Ki: CI50 normalized to the conditions of Tao and Frankel, 1992, read-out: apparent Ki; for IC50: TAR RNA 6 nM, 60 nM Tat R52, read-out: CI50 (the source's name). On the procedure:
The model Tat peptide (R52: […]) was prepared by the Weizmann Institute Chemical Services and was purified by reverse phase HPLC (C-18) (Lapidot et al., 1995). A 31-nt TAR RNA fragment (5′-GGCCAGAUCUGAGCCUGGGAGCUCUCUGGCC-3′) containing the sequence 18-44 of the HIV LTR (Aboul-Ela et al., 1995) was transcribed in vitro by T7 RNA polymerase (Promega) from a synthetic single strand DNA template containing the 17 base double-stranded T7 promoter (both DNA oligonucleotides were prepared by the Weizmann Institute Chemical Services). The RNA was transcriptionally labeled with α-^32P UTP, purified on a 12% polyacrylamide/7M urea gel (19:1 acrylamide:bis-acrylamide) and was eluted from the gel by 0.5M ammonium acetate, 10 mM magnesium acetate, 1 mM EDTA and 0.1% SDS. The sample was subjected to phenol extraction and the RNA was precipitated from 70% ethanol. Purified RNA was dissolved in diethyl pyrocarbonate-treated water (DEPC water), its concentration was determined by UV absorption at 260 nm and the specific radioactivity was determined by scintillation counting on a LS 1701 “Bruker” counter.
To study the affinity of the test compounds to TAR, gel-shift and gel-shift inhibition experiments were performed. The binding reaction mixtures (20 μl) contained ^32P-labeled TAR (18-44) RNA oligonucleotide (3-6 nM) and Tat R52 peptide (35-75 nM) in a binding buffer (10 mM Tris-HCl pH 7.5, 70 mM NaCl, 0.2 mM EDTA and 5% glycerol). The reaction mixtures were incubated for 10 minutes on ice and resolved by electrophoresis on a 10% non-denaturing polyacrylamide gel (40:1 acrylamide:bis-acrylamide) at 200V, for 3 h at 4° C. Gels were dried and visualized by autoradiography. Quantitations were obtained by optical densitometry of films. Alternatively, results were visualized by exposing the wet gels to Fuji phosphoimager plates, which were read on a “Storm 820” (Molecular Dynamics) phosphoimager. Different concentrations of TAR RNA (6,12 and 20 nM) were titrated with various concentrations of Tat R52 in the binding reactions.
Binding inhibition by the monosaccharide derivatives was measured by adding several concentrations of each compound to reaction mixtures containing 60 nM Tat 52 and 6 nM ^32P TAR, attaining 100% binding of Tat TAR in the absence of inhibitors (Lapidot et al., 1995).

With `N=C(N)NCCCC(=O)NC[C@H]1O[C@H](O[C@H]2[C@H](O)[C@@H](O[C@H]3O[C@H](CO)[C@@H](O)[C@H](NC(=O)CCCNC(=N)N)[C@H]3O)[C@H](NC(=O)CCCNC(=N)N)C[C@@H]2NC(=O)CCCNC(=N)N)[C@H](O)[C@@H](O)[C@@H]1O` [GB4K, Tetra-γ-(N-guanidino)butyramido-kanamycin A conjugate], the “binding to TAR RNA in gel-shift experiments” value in the test with TAR RNA [1] (up to 50 μM) was “did not exhibit binding”. Besides, the “binding to TAR RNA in protection experiments” value with TAR RNA [2] (at 40 μM) was “did not exhibit binding”. Further, the “TAR RNA binding, overall assessment” value with TAR RNA [2] (footprinting studies) is on record as “very weak TAR RNA binder”. Besides, the “effect on the viral growth” value in test [3] is reported as “did not show any effect”.

As to `CN[C@@H]1[C@@H](O)[C@@H](O[C@@H]2[C@@H](O)[C@H](O[C@H]3O[C@H](CNC(=O)[C@@H](N)CCCNC(=N)N)CC[C@H]3NC(=O)[C@@H](N)CCCNC(=N)N)[C@@H](NC(=O)[C@@H](N)CCCNC(=N)N)C[C@H]2NC(=O)[C@@H](N)CCCNC(=N)N)OC[C@]1(C)O` [R4GC1a, Tetraargininamido-gentamicin (C1a) conjugate], the “concentration from which a complex with TAR RNA is formed” value with TAR RNA [1] (20 nM TAR RNA) is not below 200 nM. Moreover, the CD50 in the test with TAR RNA [1] (50% binding, TAR RNA 20 nM) is given as 200 nM. Further, the Kd at TAR RNA [1] (CD50 normalized to the reported conditions (Calnan et al., 1991 b), read-out: apparent Kd) is approximately 0.02 µM.

For `COC1OC(CNC(=O)C(N)CCCNC(=N)N)C(O)C(O)C1O` [RMMP, Methyl 6-deoxy6-(N-L-argininamido)-α-D-mannopyranoside], in the test with TAR RNA [4], the CE50 turned out to be 310 mM. At Tat-TAR interaction, the Ki was approximately 160 µM and the IC50 was 1800 µM.

`CO[C@H]1O[C@H](CC#N)[C@@H](O)[C@H](O)[C@@H]1O` [compound 4, Methyl 6-deoxy-6-cyano-α-D-mannopyranoside] registered a CE50 in the test with TAR RNA [4] of 1200 mM. Further, the IC50 at Tat-TAR interaction was 46000 µM.

Consider `CO[C@H]1O[C@H](CN)[C@@H](O)[C@H](O)[C@@H]1O` [compound 7, Methyl 6-deoxy-6-amino-α-D-mannopyranoside], for which, in the test with TAR RNA [4], the CE50 was more than 1500 mM. In addition, the IC50 on Tat-TAR interaction is 56000 µM.

`CO[C@@H]1O[C@H](C/C(N)=N/O)C(O)[C@H](O)[C@@H]1O` (stereo partly drawn) [compound 9, Methyl 6-deoxy-α-D-mannoheptopyranuronic acid amidoxime] came in with a CE50 in the test on TAR RNA [4] of more than 1500 mM. For the same molecule, at Tat-TAR interaction, the IC50 is more than 50000 µM.

`CO[C@H]1O[C@H](CNC(=N)N)[C@@H](O)[C@H](O)[C@@H]1O` [compound 10, Methyl 6-deoxy-6-guanidino-α-D-mannopyranoside]: the CE50 in the test with TAR RNA [4] is on record as 650 mM. For the same molecule, on Tat-TAR interaction, the Ki is approximately 1000 µM and the IC50 turned out to be 9000 µM.

In turn, `CO[C@@H]1O[C@H](CNC(C)=N)C(O)[C@H](O)[C@@H]1O` (stereo partly drawn) [compound 11, Methyl 6-deoxy-6-(N-acetamidino)-α-D-mannopyranoside] gave a CE50 with TAR RNA [4] of 730 mM. At Tat-TAR interaction, the Ki was approximately 1000 µM and the IC50 worked out at 11000 µM.
